One compound from ChEMBL document CHEMBL1154585, “Lorneamides A and B: two new aromatic amides from a southern Australian marine actinomycete” (2000) can be followed below.

The test relates to Bacillus subtilis. Briefly: Antibacterial activity against Bacillus subtilis. The test is classed as functional.

Compound `CCCC(O)/C=C/c1cc(C)ccc1/C=C/CC(N)=O` (stereo unspecified) [LORNEAMIDE A] showed an LD99 of 50 µg/mL.
